Test results from PMC10300102, “In vivo inhibition of nuclear ACE2 translocation protects against SARS-CoV-2 replication and lung damage through epigenetic imprinting” (Nature Communications, 2023).
Where a SMILES comes first, the peptide text is derived from it. The star is where a group is joined. Myristoyl = CCCCCCCCCCCCCC(=O)*

Test system: SARS-CoV-2 ORF1ab and host gene expression
Conditions: hamster, in vivo

CCCCCCCCCCCCCC(=O)N[C@H](C(=O)NCC(=O)N[C@H](C(=O)N[C@@H](CCCNC(=N)N)C(=O)N[C@@H](CC(=O)O)C(=O)N[C@@H](CCCNC(=N)N)C(=O)N[C@@H](CCCCN)C(=O)N[C@@H](CCCCN)C(=O)N[C@@H](CCCCN)C(=O)N[C@@H](CC(N)=O)C(=O)N[C@@H](CCCCN)C(=O)N[C@@H](C)C(=O)N[C@@H](CCCNC(=N)N)C(=O)N[C@@H](CO)C(=O)O)[C@@H](C)CC)[C@@H](C)O [NACE2i] (Myristoyl-TGIRDRKKKNKARS-OH)
FC gene Cyp4v3: 0.2095 | FC gene ORF1ab: -2.2037 | FC gene S: -2.258 | FC, gene 2410004B18Rik: 0.5678 | FC, gene 4932438A13Rik: 0.5459 | FC, gene Acat3: -0.674 | FC, gene Acly: -0.5062 | FC, gene Adnp2: 0.5468 | FC, gene Aen: 0.6316 | FC, gene Aff4: 0.6064 | FC, gene Ahcy: -0.9648 | FC, gene Akap13: 0.5493 | FC, gene Ankrd17: 0.6698 | FC, gene Ap1s1: -0.5707 | FC, gene Ap3d1: 0.5083 | FC, gene Aplnr: 0.5871 | FC, gene Arhgap23: 0.8043 | FC, gene Asph: -0.5094 | FC, gene Atf1: 0.5582 | FC, gene Bbs4: 0.6922 | FC, gene Bnip1: 0.513 | FC, gene Btn1a1: 0.5761 | FC, gene C2: 2.567 | FC, gene Ccdc115: -0.5047 | FC, gene Ccr7: 0.5204 | FC, gene Cdk4: -0.5201 | FC, gene Chd8: 1.187 | FC, gene Chpt1: -0.6745 | FC, gene Ciao2a: -0.5045 | FC, gene Clcn7: 0.7305 | FC, gene Cldn10: -0.6712 | FC, gene Clec2j: -0.5841 | FC, gene Cuedc1: -0.5402 | FC, gene Cyp4a32: 0.9236 | FC, gene Cyth4: 0.5449 | FC, gene D8Ertd738e: -0.5566 | FC, gene Dcps: 0.5089 | FC, gene Ddx3x: 0.6643 | FC, gene Ddx17: -0.6263 | FC, gene Ddx50: 0.5809 | FC, gene Dnajb1: 1.307 | FC, gene Dnajb4: 0.8217 | FC, gene Dusp6: 0.7087 | FC, gene Dusp8: 0.9914 | FC, gene Edem2: -0.5407 | FC, gene Efcab6: -0.6582 | FC, gene Efhc2: 0.6406 | FC, gene Efl1: 0.5009 | FC, gene Egr2: 1.468 | FC, gene Epb41l2: 0.503 | FC, gene Epb41l4b: -0.6555 | FC, gene Epc1: 0.5651 | FC, gene Erfl: 0.7342 | FC, gene Fam210b: -0.5004 | FC, gene Fbxo34: 0.5562 | FC, gene Fer1l4: 0.5763 | FC, gene Fgfr2: -0.6329 | FC, gene Fnip1: 1.067 | FC, gene Foxa1: -0.5875 | FC, gene Foxo4: -0.5985 | FC, gene Foxp1: 0.7638 | FC, gene Frk: -0.5985 | FC, gene Fscn1: 0.6051 | FC, gene Gadd45gip1: -0.6021 | FC, gene Galnt16: 0.5879 | FC, gene Gcdh: -0.6082 | FC, gene Get3: -0.5368 | FC, gene Gm6760: -0.5229 | FC, gene Gm19935: 0.6161 | FC, gene Gm36327: 0.5888 | FC, gene Gpr108: -0.6108 | FC, gene Grcc10: -0.632 | FC, gene Gstm5: -0.5595 | FC, gene Hbs1l: 0.5826 | FC, gene Hcfc2: 0.539 | FC, gene Hddc3: -0.6233 | FC, gene Hes1: 0.7365 | FC, gene Hes7: 0.6772 | FC, gene Hnrnph3: 0.5781 | FC, gene Hspa1a: 3.192 | FC, gene Hspb8: 0.5876 | FC, gene Ints1: -0.5112 | FC, gene Ints6: 0.5796 | FC, gene Irgm2: 0.8053 | FC, gene Itm2c: -0.5859 | FC, gene Josd2: -0.5145 | FC, gene Kcnb2: 0.5599 | FC, gene Kdm2b: 0.8792 | FC, gene Klf2: 0.591 | FC, gene Klf6: 1.611 | FC, gene Krcc1: -0.5435 | FC, gene Ldhb: 0.9545 | FC, gene Lrch4: 0.6982 | FC, gene Mat2b: -0.5576 | FC, gene Mcl1: 0.7457 | FC, gene Mff: -0.5195 | FC, gene Mpnd: -0.5935 | FC, gene Mrgprb13: 0.5244 | FC, gene Mrpl18: -0.5015 | FC, gene Msantd1: 0.7207 | FC, gene Myo6: -0.795 | FC, gene Myoz2: -0.6449 | FC, gene Ndufc2: -0.5355 | FC, gene Nfat5: 0.6106 | FC, gene Nfyc: 0.5405 | FC, gene Nlrp9c: 0.6509 | FC, gene Nr1d1: 0.7307 | FC, gene Nr6a1: 0.5193 | FC, gene Nrg1: 1.2298 | FC, gene ORF1ab_REV: 1.502 | FC, gene Olfr229: 0.6277 | FC, gene Olfr648: 0.5798 | FC, gene Olfr992: 0.5742 | FC, gene Olfr1246: 0.5289 | FC, gene Oser1: 0.5067 | FC, gene Papss2: 0.7496 | FC, gene Parp4: 0.5117 | FC, gene Paxx: 0.5674 | FC, gene Pcdh10: 0.5344 | FC, gene Pcf11: 0.7986 | FC, gene Pga5: 0.5011 | FC, gene Pias3: -0.5192 | FC, gene Pigb: 0.6695 | FC, gene Pllp: -0.5323 | FC, gene Ppargc1a: 2.4524 | FC, gene Ppil3: 0.791 | FC, gene Ppp1r10: 1.995 | FC, gene Ppp2r1a: -0.5051 | FC, gene Prpsap1: -0.5066 | FC, gene Ptprf: -0.5908 | FC, gene Pum1: 0.5225 | FC, gene Rac3: -0.6773 | FC, gene Ranbp3: 0.6534 | FC, gene Rapgef6: 0.5765 | FC, gene Rasgrp2: 0.6502 | FC, gene Rbm39: 0.6181 | FC, gene Rel: 0.5472 | FC, gene Rnd1: 2.009 | FC, gene Rora: 0.5709 | FC, gene Rps6ka4: -0.6146 | FC, gene Rsad1: 0.5304 | FC, gene Rtf2: 0.5373 | FC, gene Rusf1: -0.6909 | FC, gene S: 7.077 | FC, gene Samd11: 0.6285 | FC, gene Sdf4: 0.5035 | FC, gene Sema4f: 1.3449 | FC, gene Serhl: 1.282 | FC, gene Serpinb9f: 0.5421 | FC, gene Serpinf1: 0.5919 | FC, gene Sfpq: 0.8832 | FC, gene Sftpd: -0.8403 | FC, gene Skil: 0.9649 | FC, gene Slc8a2: 0.6877 | FC, gene Slc25a1: -0.8686 | FC, gene Slc25a45: 1.7301 | FC, gene Snrnp70: -0.5232 | FC, gene Socs2: 1.6268 | FC, gene Sqle: -0.5283 | FC, gene St7: 0.6724 | FC, gene Stc1: -0.7739 | FC, gene Sult1a1: -0.5479 | FC, gene Tcp11l2: -0.5998 | FC, gene Tecr: -0.5713 | FC, gene Tmbim6: -0.5766 | FC, gene Tmem35b: 1.27 | FC, gene Tnfrsf12a: 0.714 | FC, gene Tpgs1: -0.5572 | FC, gene Tra2b: 1.01 | FC, gene Tspan12: -0.8782 | FC, gene Ttll8: -0.5897 | FC, gene Twist1: 0.5929 | FC, gene Urah: -0.7905 | FC, gene Vpreb1: 0.5028 | FC, gene Vtcn1: -0.6235 | FC, gene Xpo4: 0.7242 | FC, gene Ybey: 0.5779 | FC, gene Ypel3: -0.854 | FC, gene Zbtb10: 0.9542 | FC, gene Zdhhc18: 0.5354 | FC, gene Zfp68: 0.8041 | NEC, Autophagy: -1.884 | NEC, Biological oxidations: -2.307 | NEC, COPI-mediated anterograde transport: -2.085 | NEC, Cilium Assembly: -1.905 | NEC, ER to Golgi Anterograde Transport: -1.892 | NEC, Macroautophagy: -1.884 | NEC, Organelle biogenesis and maintenance: -2.083 | NEC, The citric acid (TCA) cycle and respiratory electron transport: -2.083 | expression of SARS-CoV-2 ORF1ab: significantly reduced | top 20 genes in the TLR4 pathway: downregulated | viral ORF1ab and S genes in alveoli: significantly downregulated
